From patent US20230414476A1, “TETRAPEPTIDE AND COMPOSITIONS COMPRISING TETRAPEPTIDES” (THE BOOTS COMPANY, priority 2020, published 2023)

How the values were obtained:
[1] = system: Decorin; test: ELISA of decorin in culture supernatant of human dermal fibroblasts; type: cell-based; conditions: normal human dermal fibroblasts, 72 hours, weighted to viable cells
Description: (§1) An ELISA is an immunological assay commonly used to measure presence and abundance of a specific proteins (antibodies, antigens, proteins and glycoproteins) in biological samples. In this case ELISAs are being used to quantify the expression of dermal extracellular proteins collagen-1, decorin, fibronectin and collagen IV. The quantity of collagen I is evaluated via the quantity of PIP (“carboxU-terminal pro-peptide of procollagen type I”) which is a peptide fragment resulting from the enzymatic degradation of procollagen present outside the fibroblast in the culture supernatant medium.
(§2) Normal human dermal fibroblasts cells (HDFs) were cultured in contact with the tetrapeptides of the present invention, or composition without the peptide (negative control), for 72 hours. Thereafter the cultured supernatants were removed, and the quantity of dermal extracellular proteins determined using an ELISA assay for the protein of interest. For the ELISA quantification, cell viability was calculated using Hoechst staining allowing the quantity of dermal proteins to be weighted to the number of viable cells.
(§3) The effect of XXGD tetrapeptides on ECM protein expression by fibroblasts as measured by ELISA (columns 1 to 2) versus a tetrapeptide not conforming to the XXGD structure (column 3) are presented in the table below (table 1). Results are expressed as % increase or decrease versus the negative control.

[2] = system: Fibrillin-1; test: Immunofluorescence of Fibrillin-1 expression by HDF cells; type: cell-based, human; conditions: primary HDF cells, 5 days
Description: Immunofluorescence relies on the use of antibodies to label a specific protein with a fluorescent dye such as fluorescein isothiocyanate (FITC). In the following experiments, indirect immunofluorescence is used where a primary antibody first recognises and attaches to the specific protein, in this case fibrillin-1, and then a secondary antibody conjugated with FITC directed against the primary antibody is used for detection.
Fibrillin-1 expression was determined using immunofluorescence. Primary human dermal fibroblast (HDF) cells were purchased from Promo Cell and came from a donor. Cells were grown in wells of 96 well black walled clear bottomed plates (Peirce, Thermo Fisher). Cells were cultured in HDF media (PromoCell) supplemented with Basic Fibroblast Growth Factor (recombinant human), 1 ng/ml and Insulin 5 μg/ml. […]
The antibody binding to Fibrillin-1 fibres was visualised using a Nikon Eclipse 100 microscope fluorescence setting using an excitation lens for fluorescein isothiocyanate (FITC). […] ImageJ software was used to quantify the Fibrillin-1 fibre abundance and coverage in each image using a threshold of 235 measuring the fibre density.
Results are expressed as a percentage increase in fibrillin abundance compared to untreated control. […]

[3] = system: Fibronectin; test: ELISA of fibronectin in culture supernatant of human dermal fibroblasts; type: cell-based; conditions: normal human dermal fibroblasts, 72 hours, weighted to viable cells
Description: as §1, §2, §3

[4] = system: Collagen IV; test: ELISA of collagen IV in culture supernatant of human dermal fibroblasts; type: cell-based; conditions: normal human dermal fibroblasts, 72 hours, weighted to viable cells
Description: as §1, §2, §3

[5] = system: Collagen I (PIP); test: ELISA of collagen I (via PIP) in culture supernatant of human dermal fibroblasts; type: cell-based; conditions: normal human dermal fibroblasts, 72 hours, weighted to viable cells
Description: as §1, §2
The quantity of collagen I is evaluated using the quantity of PIP (“carboxU-terminal pro-peptide of procollagen type I”) which is a peptide fragment resulting from the enzymatic degradation of procollagen present outside the fibroblast in the culture supernatant medium.
as §3

Substance | Decorin expression, % increase or decrease versus the negative control ([1]; peptide 15 ppm) | Fibrillin-1, percentage increase in fibrillin abundance compared to untreated control ([2]; peptide 10 ppm (concentration with highest yield)) | Fibronectin expression, % increase or decrease versus the negative control ([3]; peptide 15 ppm) | Collagen IV expression, % increase or decrease versus the negative control ([4]; peptide 15 ppm) | Collagen I (PIP) expression, % increase or decrease versus the negative control ([5]; peptide 15 ppm) | Fibrillin-1, percentage increase in fibrillin abundance compared to untreated control ([2]; peptide 4 ppm (concentration with highest yield)) | Decorin expression, % increase or decrease versus the negative control ([1]; peptide 12.5 ppm) | Fibronectin expression, % increase or decrease versus the negative control ([3]; peptide 12.5 ppm) | Collagen IV expression, % increase or decrease versus the negative control ([4]; peptide 12.5 ppm) | Collagen I (PIP) expression, % increase or decrease versus the negative control ([5]; peptide 12.5 ppm)
Pal-GYIL-OH [reference compound] | −13% | +3% | −38% | +6% | +18% |  |  |  |  | 
Pal-AKGD-OH | +39% |  | +112% | +40% | +26% | +116% |  |  |  | 
Pal-EKGD-OH |  |  |  |  |  |  | +43% | +114% | +73% | +101%
